Measurements taken from article PMC3709818, “A Novel Perspective and Approach to Intestinal Octreotide Absorption: Sinomenine-Mediated Reversible Tight Junction Opening and Its Molecular Mechanism” (International Journal of Molecular Sciences, 2013).
Counter-ions that a name gives are not always drawn.

Assays:
[1] = OCT transport across Caco-2 cell monolayers; assay type: in vitro ADME, human; conditions: Caco-2, 21 days, Transwell, 10 μM OCT with or without 0.5% SN, PBS pH 7.4, 120 min, 37 °C, LC-MS/MS, triplicate, mean ± s.d.
Experimental: Caco-2 cells were seeded onto polycarbonate 12-well Transwell® filter inserts as described above. The OCT transport experiment was performed in the apical-to-basolateral directions in PBS adjusted to pH 7.4 [7]. A volume of 0.5 mL of 0.5% SN containing 10 μM OCT was added to the apical side of Caco-2 cell monolayers. The medium in the basolateral side was buffered by the addition of 1.5 mL PBS of each well. Samples of 0.1 mL were withdrawn at time intervals of 30, 60, 90 and 120 min from the basolateral side after the incubation of the solutions on the apical side of cell monolayers. The samples withdrawn were replaced with an equal volume of buffered PBS. Control experiments were performed using a solution of OCT alone. […]
The results were corrected for dilution and plotted as the percentage cumulative OCT transported as a function of time. The apparent permeability coefficients (Papp) were calculated according to the following equation [33]: Papp = ΔQ/(Δt × A × C0) (cm/s), where ΔQ/Δt is the amount of OCT transported within a given time period or permeability rate (ng/min), A is the surface area of the cell monolayer on the insert (cm^2) and C0 is the initial drug concentration (ng/mL). Permeation enhancement ratios (R) were calculated from the Papp values using the following equation R = Papptest/Pappcontrol.

[2] = everted rat gut sac model; cited from earlier work
claudin-1 = assay: Claudin-1 gene and protein expression (real-time PCR, western blot, immunofluorescence); assay type: cell-based, human; conditions: Caco-2 monolayers
Experimental: Caco-2 cells were grown on 6-well plates for 21 days and were then treated with SN for 2 h. Then, SN was removed by washing the cells with PBS twice. The cells were grown with new culture medium for another 2 h. To observe the effect of PKC on SN, cells in another group were treated with 0.5% SN and 10 μM Ro318220 together for 2 h. Control experiments were performed under the same conditions but without SN. The gene level expressions induced by SN treatment and after its removal were investigated. Total RNA was extracted following a standard guanidinium phenol-chloroform extraction protocol. The quantity of mRNA was determined by measuring the optical density at 260 nm (A260 nm = 1 for 40 μg/mL RNA), and the purity of mRNA was assessed by determining the ratio of the optical density obtained at 260 and 280 nm (pure RNA: A260 nm/A280 nm = 2.0) using a UV-1206 spectrophotometer (Shimadzu, Tokyo, Japan). […] Quantitative real-time PCR was performed using the Applied Biosystems 7500 faster Real-Time PCR System with the SYBR® Premix Ex Taq™ (Tli RNaseH Plus) Master Mix purchased from Takara Bio Inc. (Dalian, China) in triplicate for each sample and each gene. […] The results were expressed as the folds of the CT value for the target mRNA to that of the β-actin mRNA. […]

PKC-α = PKC-α translocation cytosol to membrane (western blot); assay type: cell-based, human; conditions: Caco-2 cells, 0.5% SN, 2 h
Experimental: Caco-2 cells were grown on 6-well plates and were treated with SN as described above. After treatment, cytosolic, membrane and total protein were extracted following the manufacturer’s instructions of the test kit from Nanjing KeyGEN Biotech. CO., LTD (China). The protocols for western blot analyses have been described previously. The protein concentration was calculated using the BCA Protein Assay Kit from Nanjing KeyGEN Biotech. CO., LTD (China). Equal amounts of protein samples (30 μg protein) were separated onto SDS-polyacrylamide gels (PKC and β-actin were 12% gels, claudin-1 was 15% gels), and the separated proteins were transferred to a PVDF membrane. After blocking in 5% skim milk in Tris-buffered saline containing 0.05% Tween-20 (TTBS), the PVDF membrane was incubated overnight in blocking buffer with diluted primary antibodies: anti-claudin-1 (Abcam, Cambridge, MA, USA, 1:1000 dilution), anti-PKC-α (Beyotime Institute of Biotechnology, China, 1:500 dilution), and anti-β-actin (Zhongshan Goldenbridge Biological Technology, Beijing, China, 1:500 dilution), at 4 °C. […] The product bands were photographed, and the density of each product band was quantified. The intensity of each signal was corrected using the values obtained from the immunodetection of β-actin, and the relative protein intensity was expressed as folds of the content in the normal group.

Caco-2 cell monolayers [3] = assay: LDH release cytotoxicity assay; assay type: cell-based, human
Experimental: To examine the toxic effects of SN to the Caco-2 cells, a lactate dehydrogenase (LDH) release assay was performed according to Madara and Stafford. The Caco-2 monolayer, which had been cultured in 24-well plates for 21 days, was washed with 500 μL of the PBS and was then incubated with 500 μL of the PBS containing the samples (0.5%, 1%, 2% w/v SN) to be tested at 37 °C for 120 min. Control experiments were performed under the same conditions but without SN. The amounts of LDH in the supernatant were determined using the enzymatic method and following the manufacturer’s instructions of LDH-Cytotoxic test kit from Nanjing KeyGEN Biotech. CO., Ltd. (Nanjing, China). Cytotoxicity was determined after 120 min of SN treatment, and the absorbance at 440 nm (reference wavelength was 650 nm) was measured to determine LDH activity. The cytotoxicity to the Caco-2 cell monolayers was expressed by the ratio of LDH released into the supernatant compared with the control group.
The LDH activity was calculated thus: (U/L) = (ODu − ODc)/(ODs − ODb) × Cs × N × 1000, where ODu, ODc, ODs, ODb represent the absorbance of the test tube, control tube, standard tube, and background tube, respectively, C represents the standard concentration (2 mmol/L) and N represents the dilution ratio of the sample.

Caco-2 cell monolayers [4] = assay: FD-4 permeability (paracellular flux); assay type: cell-based, human; conditions: 0.1% FD-4 apical, 0.5% SN with or without 10 μM Ro318220, up to 120 min, PBS pH 7.4, fluorescence
Experimental: The integrity of the cell monolayer TJs was also examined by evaluating the FD-4 permeability in PBS adjusted to pH 7.4. A volume of 0.5 mL of 0.1% FD-4 containing 0.5% SN or 0.5% SN + 10 μM Ro318220 was added to the apical side of Caco-2 cell monolayers. The medium in basolateral side was buffered by the addition of 1.5 mL PBS to each well. Samples of 0.1 mL were withdrawn at time intervals of 30, 60, 90 and 120 min from the basolateral side after the incubation of the solutions on the apical side of cell monolayers. The samples withdrawn were replaced with an equal volume of buffered PBS. Control experiments were performed using a solution of 0.1% FD-4 alone. All of the experiments were performed in triplicate at 37 °C in an atmosphere of 90% relative humidity and 5% CO2. Basolateral solutions were then sampled and analyzed.
Quantitative analysis of FD-4: Samples were centrifuged at 10,000 rpm for 10 min, and the supernatant was analyzed using a fluorescence spectrophotometer at an excitation wavelength of 495 nm and an emission wavelength of 520 nm (Hitachi, FP6500, Tokyo, Japan).
Permeation clearance: ΔQ/(Δt × C0), where ΔQ/Δt is the permeation flux, i.e., the transport rate (μg/min), and C0 is the initial concentration on the donor side (μg/mL). Clearance was obtained per unit surface area and expressed as nL/min/cm2.

Caco-2 cell monolayers [5] = assay: Transepithelial electrical resistance (TEER) measurement; assay type: cell-based, human
Experimental: The cell monolayer integrity was examined by measuring the TEER and evaluating the cell permeability to FD-4 in Caco-2 cell monolayers. The experiments were performed after Caco-2 cells formed polarized monolayers. Cells were seeded onto polycarbonate 12-well Transwell® filter inserts (Corning Costar Corp., Cambridge, MA, USA; pore size 0.4 μm, growth area 1.12 cm^2) at a density of 1 × 10^6 cells/mL, and the cells were grown for 21 days before the TEER study was conducted. After the application of 0.5% SN, TEER was measured at time intervals of 20 min for a period of 120 min. Then, the reversibility of SN on TEER was measured by removing SN from the apical compartment and replacing it with serum-free DMEM for a further 120 min at 20-min intervals. To observe the effect of PKC to SN, cells in another group were treated with 0.5% SN and 10 μM Ro318220 (PKC inhibitor) together for 120 min at 20-min intervals. Control experiments were performed under the same conditions but without SN. All of the experiments were performed in triplicate at 37 °C in an atmosphere of 90% relative humidity and 5% CO2. The TEER measurements across Caco-2 cell monolayers were performed using a Millicell ERS instrument (Millipore, Bedford, MA, USA). The TEER values of these cells after treatment were recorded. Resistance due to the cell monolayers was determined in the presence and the absence of SN after subtracting the contribution of the blank filter. The percent change in TEER was calculated as follows:
(1) TEER=(R1-R0)×A (Ω·cm^2)
where R1 and R0 represent the TEER readings from the wells with cells and the no-cell background wells, respectively, and A (cm^2) represents the surface area of the cell monolayer on the insert.
(2) TEER%=TEERtest/EERinitial×100

## C[C@@H](O)[C@@H]1NC(=O)[C@H](CCCCN)NC(=O)[C@@H](Cc2c[nH]c3ccccc23)NC(=O)[C@H](Cc2ccccc2)NC(=O)[C@@H](NC(=O)[C@H](N)Cc2ccccc2)CSSC[C@@H](C(=O)N[C@H](CO)[C@@H](C)O)NC1=O [OCT, Octreotide]
[1]
  Papp A→B: 2.67 ± 0.015 ×10⁻⁶ cm/s

## C[C@@]12C[C@@]3(O)O[C@@H](O1)[C@]1(COC(=O)c4ccccc4)[C@H]3C[C@@]12O[C@@H]1O[C@H](CO)[C@@H](O)[C@H](O)[C@H]1O [paeoniflorin]
[2]
  increase of paeoniflorin absorption when co-incubated with SN: approximately 2.5 fold

## COC1=C[C@@H]2[C@@H]3Cc4ccc(OC)c(O)c4[C@]2(CCN3C)CC1=O [SN, Sinomenine hydrochloride]
claudin-1; 0.5% SN 2 h, then 2 h after removal
  claudin-1 expression after SN removal: returned to its normal level
claudin-1; 0.5% SN with or without 10 μM Ro318220, 2 h
  claudin-1 gene and protein expression vs control: distinct loss of claudin-1 gene
PKC-α
  PKC-α distribution between cytosolic and membrane fraction: most PKC-α was present in the membrane fraction
Caco-2 cell monolayers [3]; 0.5% w/v SN, 120 min, PBS 37 °C, Caco-2 monolayers cultured 21 days
  LDH release vs control: did not differ from the control
Caco-2 cell monolayers [3]; 1% w/v SN, 120 min, Caco-2 monolayers
  cytotoxicity by LDH test: cytotoxic effects
Caco-2 cell monolayers [3]; 2% w/v SN, 60 min, Caco-2 monolayers
  LDH release vs control: markedly increased LDH activity
Caco-2 cell monolayers [3]; 2% w/v SN, 120 min, Caco-2 monolayers
  cytotoxicity by LDH test: cytotoxic effects
Caco-2 cell monolayers [4]
  FD-4 flux (A-B): time-dependent increase in FD-4 flux
Caco-2 cell monolayers [5]; 0.5% SN 120 min, then removal, at 240 min
  TEER recovery after SN removal vs control: no difference compared with the control
Caco-2 cell monolayers [5]; 0.5% SN with or without 10 μM Ro318220, 120 min, Caco-2 monolayers, triplicate
  effect on TEER at 120 min vs control: strong reduction of TEER
Caco-2 cell monolayers [5]; 0.5% SN, 120 min incubation, pH 7.4, Caco-2 monolayers
  TEER relative to the initial value: 43%
Caco-2 cell monolayers [5]; 0.5% SN, Caco-2 monolayers, recovery after removal
  time for transient and reversible opening of TJ: 2 h
